Structures can show the parent of a compound that is named as a salt.
Assay: Human primary T-cell proliferation stimulated by IL-2 (CellTiter-Glo)
Format: cell-based
Conditions: primary human T-cells, IL-2 stimulated proliferation, 72 hours, ATP readout; read-out: Activity (IC50, inhibition of JAK3 activity)
Text: One means of assaying for such inhibition is detection of the effect of the 2,4-substituted pyrimidinediamine compounds on the upregulation of downstream gene products. For example, the activity of the disclosed compounds may be characterized by assaying the effect of the 2,4-substituted pyrimidinediamine compounds described herein on the proliferative response of primary human T-cells. In this assay, primary human T-cells derived from peripheral blood and pre-activated through stimulation of the T-cell receptor and CD28, proliferate in culture in response to the cytokine Interleukin-2 (IL-2). This proliferative response is dependent on the activation of JAK1 and JAK3 tyrosine kinases, which phosphorylate and activate the transcription factor Stat-5. The primary human T-cells are incubated with the 2,4-substituted pyrimidinediamine compounds in the presence of IL-2 for 72 hours and at the assay endpoint intracellular ATP concentrations are measured to assess cell viability. A reduction in cell proliferation compared to control conditions is indicative of inhibition of the JAK kinase pathway.
Primary human T-cells derived from peripheral blood and pre-activated through stimulation of the T-cell receptor and CD28, proliferate in vitro in response to the cytokine Interleukin-2 (IL-2). This proliferative response is dependent on the activation of JAK-1 and JAK-3 tyrosine kinases, which phosphorylate and activate the transcription factor Stat-5.
Human primary T-cells were prepared as follows. Whole blood was obtained from a healthy volunteer, mixed 1:1 with PBS, layered on to Ficoll Hypaque (Amersham Pharmacia Biotech, Piscataway, N.J., Catalog #17-1440-03) in 2:1 blood/PBS:ficoll ratio and centrifuged for 30 min at 4° C. at 1750 rpm. The lymphocytes at the serum: ficoll interface were recovered and washed twice with 5 volumes of PBS. The cells were resuspended in Yssel's medium (Gemini Bio-products, Woodland, Calif., Catalog #400-103) containing 40 U/mL recombinant IL2 (R and D Systems, Minneapolis, Minn., Catalog #202-IL (20 μg)) and seeded into a flask pre-coated with 1 μg/mL anti-CD3 (BD Pharmingen, San Diego, Calif., Catalog #555336) and 5 μg/mL anti-CD28 (Immunotech, Beckman Coulter of Brea Calif., Catalog #IM1376). The primary T-cells were stimulated for 3-4 days, then transferred to a fresh flask and maintained in RPMI with 10% FBS and 40 U/mL IL-2.
The day prior to the assay set up, primary T-cells were centrifuged and resuspended in fresh RPMI with 10% FBS but without IL-2 and starved overnight. For the assay, the primary T-cells were centrifuged and resuspended Yssel's medium at 2×10^6 cells/mL. 50 μL of cell suspension containing 80 U/mL IL-2 was added to each well of a flat bottom 96 well black plate. For the unstimulated control, IL-2 was omitted from the last column on the plate. Compounds were serially diluted in dimethyl sulfoxide (DMSO, 99.7% pure, cell culture tested, Sigma-Aldrich, St. Louis, Mo., Catalog No. D2650) from 5 mM in 3-fold dilutions, and then diluted 1:250 in Yssel's medium. 50 μL of 2× compound was added per well in duplicate and the cells were allowed to proliferate for 72 hours at 37° C.
Proliferation was measured using CellTiter-Glo® Luminescent Cell Viability Assay (Promega), which determines the number of viable cells in culture based on quantitation of the ATP present, as an indicator of metabolically active cells. The substrate was thawed and allowed to come to ambient temperature. After mixing the Cell Titer-Glo reagent and diluent together, 100 μL was added to each well. The plates were mixed on an orbital shaker for two minutes to induce lysis and incubated at ambient temperature for an additional ten minutes to allow the signal to equilibrate. Detection was performed using a Wallac Victor2 1420 multilabel counter purchased from Perkin Elmer, Shelton, Conn.

Row | IC50 [nM] | SMILES
1 | < 500 | Cc1cnc(Nc2ccc(C(=O)NC3CCC3)cc2)nc1Nc1ccc2oc(=O)[nH]c2c1 [Compound A5, N-cyclobutyl-4-[5-methyl-4-(2-oxo-2,3-dihydro-benzooxazol-5-ylamino)-pyrimidin-2-ylamino]-benzamide]
2 | < 500 | Cc1ccc(Nc2ncc(C)c(Nc3ccc4oc(=O)[nH]c4c3)n2)cc1C [Compound A10, 5-[2-(3,4-dimethyl-phenylamino)-5-methyl-pyrimidin-4-ylamino]-3H-benzooxazol-2-one]
3 | 500 to 5000 | COc1cc(Nc2ncc(C)c(Nc3ccc4oc(=O)n(COP(=O)(O)O)c4c3)n2)cc(C(F)(F)F)c1 [Compound A15, N2-(3-methoxy-5-trifluoromethyl)phenyl-5-methyl-N4-[3-(phosphonooxy)methyl-2-oxo-2,3-dihydro-1,3-benzoxazol-5-yl]-2,4-pyrimidinediamine bis-sodium salt]
4 | < 500 | COc1cc(Nc2ncc(C)c(Nc3ccc4oc(=O)[nH]c4c3)n2)cc(C)c1F [Compound I-432, 5-(2-(4-fluoro-3-methoxy-5-methylphenylamino)-5-methylpyrimidin-4-ylamino)benzo[d]oxazol-2(3H)-one]
5 | 500 to 5000 | Cc1cnc(Nc2cc(C)c(C)c(C)c2)nc1Nc1ccc2oc(=O)n(COP(=O)(O)O)c2c1 [Compound A17, 5-methyl-N4-[3-(phosphonooxy)methyl-2-oxo-2,3-dihydro-1,3-benzoxazol-5-yl]-N2-(3,4,5-trimethyl)phenyl-2,4-pyrimidinediamine bis-sodium salt]
6 | < 500 | Cc1cnc(Nc2ccc(C(N)=O)cc2)nc1Nc1ccc2oc(=O)[nH]c2c1 [Compound A3, N4-(benzo[d]oxazol-2(3H)-on-5-yl)-N2-(4-aminocarbonylphenyl)-5-methylpyrimidine-2,4-diamine]
7 | < 500 | Cc1cc(CF)cc(Nc2ncc(C)c(Nc3ccc4oc(=O)[nH]c4c3)n2)c1 [Compound A7, 5-(2-(3-(fluoromethyl)-5-methylphenylamino)-5-methylpyrimidin-4-ylamino)benzo[d]oxazol-2(3H)-one]
8 | < 500 | Cc1cnc(Nc2cc(C)c(F)c(C)c2)nc1Nc1ccc2oc(=O)[nH]c2c1 [Compound A14, N2-(3,5-dimethyl-4-fluoro)phenyl-5-methyl-N4-(2-oxo-2,3-dihydro-1,3-benzoxazol-5-yl)-2,4-pyrimidinediamine]
9 | 500 to 5000 | Cc1cnc(Nc2cc(C)c(F)c(C)c2)nc1Nc1ccc2oc(=O)n(COP(=O)(O)O)c2c1 [Compound A18, N2-(3,5-dimethyl-4-fluoro)phenyl-5-methyl-N4-[3-(phosphonooxy)methyl-2-oxo-2,3-dihydro-1,3-benzoxazol-5-yl]-2,4-pyrimidinediamine bis-sodium salt]
10 | < 500 | Cc1ccc(Nc2ncc(C)c(Nc3ccc4oc(=O)[nH]c4c3)n2)cc1F [Compound A8, N2-(3-fluoro-4-methyl)phenyl-5-methyl-N4-(2-oxo-2,3-dihydro-1,3-benzoxazol-5-yl)-2,4-pyrimidinediamine]
11 | < 500 | Cc1cnc(Nc2ccc(C(=O)Nc3ccccc3)cc2)nc1Nc1ccc2oc(=O)[nH]c2c1 [Compound A2, 4-[5-methyl-4-(2-oxo-2,3-dihydro-benzoxazol-5-ylamino)-pyrimidin-2-ylamino]-N-phenyl-benzamide]
12 | < 500 | Cc1cnc(Nc2ccc3cnoc3c2)nc1Nc1ccc2oc(=O)[nH]c2c1 [Compound A12, 5-(2-(benzo[d]isoxazol-6-ylamino)-5-methylpyrimidin-4-ylamino)benzo[d]oxazol-2(3H)-one]
13 | 500 to 5000 | COc1cc(Nc2ncc(C)c(Nc3ccc4oc(=O)n(COP(=O)(O)O)c4c3)n2)cc(C)c1F [Compound A16, Sodium (5-(2-(4-fluoro-3-methoxy-5-methylphenylamino)-5-methylpyrimidin-4-ylamino)-2-oxobenzo[d]oxazol-3(2H)-yl)methyl phosphate]
14 | < 500 | COc1cc(Nc2ncc(C)c(Nc3ccc4oc(=O)[nH]c4c3)n2)cc(Cl)c1OC [Compound A11, 5-(2-(3-chloro-4,5-dimethoxyphenylamino)-5-methylpyrimidin-4-ylamino)benzo[d]oxazol-2(3H)-one]
15 | < 500 | Cc1cnc(Nc2cc(C)c(C)c(C)c2)nc1Nc1ccc2oc(=O)[nH]c2c1 [Compound A1, N2-(3,4,5-trimethyl)phenyl-5-methyl-N4-(2-oxo-2,3-dihydro-1,3-benzoxazol-5-yl)-2,4-pyrimidinediamine]

— patent US11220496B2, “Compounds and method for treating autoimmune diseases” (Rigel Pharmaceuticals, Inc., priority 2013, dated 2022)
